The supplement of paper PMC4862054

What was measured:
Experiment in all cases: normalised viability (% of control), CellTiter-Blue; higher = more viable cells (about 100 = DMSO control)
Settings in all cases: incubation time: 72 h
CAL-120 = test system: CAL-120
Procedure, shortened: (§1)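 Plates were quality-checked by Z'-factor and normalised to vehicle (100) and a positive kill control (0). The underlying assay incubated breast cancer cell lines for 72 h on 384-well plates with compound, then added 2.5 µl CellTiter-Blue for 2 h at 37 °C and read at 560/590 nm. The value is normalised viability at a single listed concentration of the series.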

HCC1143 = test system: HCC1143
Procedure, shortened: as §1

HCC1599 = test system: HCC1599
Procedure, shortened: as §1

MDA-MB-231 = test system: MDA-MB-231
Procedure, shortened: as §1

MDA-MB-436 = test system: MDA-MB-436
Procedure, shortened: as §1

MDA-MB-453 = test system: MDA-MB-453
Procedure, shortened: as §1

MDA-MB-468 = test system: MDA-MB-468
Procedure, shortened: as §1

SK-BR-3 = test system: SK-BR-3
Procedure, shortened: as §1

C=CC(=O)N1CCC[C@@H](n2nc(-c3ccc(Oc4ccccc4)cc3)c3c(N)ncnc32)C1
normalised viability [%]
Settings	CAL-120	HCC1143	HCC1599	MDA-MB-231	MDA-MB-436	MDA-MB-453	MDA-MB-468	SK-BR-3
0.3 nM	–	–	–	–	–	112	–	–
1 nM	86.4	76	104	102	106	–	99.9	91.9
3 nM	–	–	–	–	–	92.4	–	–
10 nM	–	–	–	–	–	77.3	–	–
100 nM	86.4	79	83.3	101	85.8	–	78.3	24.9
1000 nM	97	81.8	82.6	111	94.8	–	69.3	21.7

CC(=O)Nc1cccc(-n2c(=O)n(C3CC3)c(=O)c3c(Nc4ccc(I)cc4F)n(C)c(=O)c(C)c32)c1
normalised viability [%]
Settings	CAL-120	HCC1143	HCC1599	MDA-MB-231	MDA-MB-436	MDA-MB-453	MDA-MB-468	SK-BR-3
0.075 nM	–	–	–	–	–	107	–	–
0.25 nM	113	124	93.1	101	104	–	110	111
0.75 nM	–	–	–	–	–	113	–	–
2.5 nM	–	–	–	–	–	128	–	–
25 nM	68.1	71	69.8	39.6	97.8	–	92.6	111
250 nM	47.6	64.6	50.1	38.7	95	–	74.7	97.7
